Laboratory results from patent US8802597B2, “Herbicidal pyrimidines” (E I du Pont de Nemours and Company, priority 2003, dated 2014).

Legend:
Type in all cases: in vivo
[1] = system: Canada horseweed (Conyza canadensis); experiment: Test G pre/postemergence
Summary of the method: (§1)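 Greenhouse pre/postemergence screen with surfactant-containing solvent formulation; postemergence plants were 1- to 4-leaf stage. Percent control (0–100) was judged by eye against controls after 12–21 days.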

[2] = system: common groundsel (Senecio vulgaris); experiment: Test G pre/postemergence
Summary of the method: as §1

[3] = system: Russian thistle (Salsola kali); experiment: Test G pre/postemergence
Summary of the method: as §1

[4] = system: sugarcane (Saccharum officinarum); experiment: Test G sugarcane pre/postemergence
Excerpt: Also at a different time, seed pieces (nodes) of sugarcane (Saccharum officinarum) were planted and treated preemergence and/or postemergence with some of the test chemicals formulated in the same manner. Treated plants and controls were maintained in a greenhouse for 14 days, after which time the treated plants were compared to controls and visually evaluated.
(§2) Plant response ratings, summarized in Table G, are based on a scale of 0 to 100 where 0 is no effect and 100 is complete control. A dash (-) response means no test result.

[5] = system: orange (Citrus sinensis) trees; experiment: Test G post-directed application; conditions: 1500 g ai/ha, scale 0 to 100
Method: (§3) At a different time, established container-grown grape (Vitus vinifera) vines, and olive (Olea europaea) and orange (Citrus sinensis) trees were treated with some of the test chemicals formulated in the same manner and applied to the soil surface and the lower 5 cm of the plant vines or trunks (post-directed application). Plants ranged in height from 30 to 100 cm. The applications were made using a hand sprayer delivering a volume of 990 L/ha. Treated plants and controls were maintained in a greenhouse for 28 days, after which time the treated plants were compared to controls and visually evaluated.
as §2

[6] = system: grape (Vitus vinifera) vines; experiment: Test G post-directed application; conditions: 1500 g ai/ha, scale 0 to 100
Method: as §3, §2

[7] = system: olive (Olea europaea) trees; experiment: Test G post-directed application; conditions: 1500 g ai/ha, scale 0 to 100
Method: as §3, §2

[8] = system: wheat (TRZAW; Triticum aestivum); experiment: Test K postemergence; conditions: 15 days
Method: (§4) Seeds of plant species selected from sulfonylurea herbicide-susceptible (SU-susceptible) and sulfonylurea herbicide-resistant (SU-resistant) catchweed bedstraw (GALAP; Galium aparine) and wheat (TRZAW; Triticum aestivum) were treated with postemergence applications of test chemicals formulated in a non-phytotoxic solvent mixture which included a surfactant. Plants were treated at the 2-3 leaf stage and 2 whorl stage for wheat and catchweed bedstraw, respectively. Treated plants and controls were maintained in a controlled growth environment for 15 days after which time all species were compared to controls and visually evaluated. Plant response ratings, summarized in Table K, are based on a scale of 0 to 100 where 0 is no effect and 100 is complete control. A dash (-) response means no test result.

[9] = system: sulfonylurea herbicide-resistant (SU-resistant) catchweed bedstraw (GALAP; Galium aparine); experiment: Test K postemergence; conditions: 15 days
Method: as §4

[10] = system: sulfonylurea herbicide-susceptible (SU-susceptible) catchweed bedstraw (GALAP; Galium aparine); experiment: Test K postemergence; conditions: 15 days
Method: as §4

[11] = Postemergence, 250 g ai/ha, scale 0 to 100
[12] = Postemergence, 500 g ai/ha, scale 0 to 100
[13] = Postemergence, 125 g ai/ha, scale 0 to 100
[14] = Postemergence, 375 g ai/ha, scale 0 to 100
[15] = Preemergence, 62 g ai/ha, scale 0-100
[16] = Preemergence, 125 g ai/ha, scale 0-100
[17] = Preemergence, 250 g ai/ha, scale 0-100
[18] = Preemergence, 500 g ai/ha, scale 0 to 100
[19] = Preemergence, 375 g ai/ha, scale 0 to 100
[20] = Postemergence, 62 g ai/ha, scale 0 to 100

## CCOC(=O)c1nc(C2CC2)nc(N)c1Br [Compound 1, ethyl 6-amino-5-bromo-2-cyclopropyl-4-pyrimidinecarboxylate]
[1]; [11]
  Plant response rating, Horseweed: 100
[1]; [12]
  Plant response rating, Horseweed: 100
[1]; [13]
  Plant response rating, Horseweed: 70
[1]; [14]
  Plant response rating, Horseweed: 100
[1]; [15]
  Plant response rating, Horseweed: 95
[1]; [16]
  Plant response rating, Horseweed: 95
[1]; [17]
  Plant response rating, Horseweed: 100
[1]; [18]
  Plant response rating, Horseweed: 100
[1]; [19]
  Plant response rating, Horseweed: 100
[2]; [11]
  Plant response rating, Groundsel: 95
[2]; [12]
  Plant response rating, Groundsel: 100
[2]; [20]
  Plant response rating, Groundsel: 60
[2]; [13]
  Plant response rating, Groundsel: 95
[2]; [14]
  Plant response rating, Groundsel: 100
[2]; [15]
  Plant response rating, Groundsel: 60
[2]; [16]
  Plant response rating, Groundsel: 100
[2]; [17]
  Plant response rating, Groundsel: 100
[2]; [18]
  Plant response rating, Groundsel: 100
[2]; [19]
  Plant response rating, Groundsel: 100
[3]; [11]
  Plant response rating, Russian Thistle: 100
[3]; [20]
  Plant response rating, Russian Thistle: 100
[3]; [13]
  Plant response rating, Russian Thistle: 100
[3]; [14]
  Plant response rating, Russian Thistle: 100
[3]; [15]
  Plant response rating, Russian Thistle: 100
[3]; [16]
  Plant response rating, Russian Thistle: 100
[3]; [17]
  Plant response rating, Russian Thistle: 100
[3]; Preemergence, 500 g ai/ha, scale 0-100
  Plant response rating, Russian Thistle: 100
[3]; [18]
  Plant response rating, Russian Thistle: 100
[4]; [11]
  Plant response rating, Sugarcane: 13
[4]; [12]
  Plant response rating, Sugarcane: 38
[4]; Postemergence, 31 g ai/ha, scale 0 to 100
  Plant response rating, Sugarcane: 0
[4]; [20]
  Plant response rating, Sugarcane: 0
[4]; [13]
  Plant response rating, Sugarcane: 3
[4]; [15]
  Plant response rating, Sugarcane: 0
[4]; [16]
  Plant response rating, Sugarcane: 0
[4]; [17]
  Plant response rating, Sugarcane: 0
[4]; Preemergence, 375 g ai/ha, scale 0-100
  Plant response rating, Sugarcane: 0
[5]
  Plant response rating, Orange: 50
[6]
  Plant response rating, Grape: 100
[7]
  Plant response rating, Olive: 50
[8]; 4 g a.i./ha
  Plant response rating (0 to 100 scale): 0
[8]; 8 g a.i./ha
  Plant response rating (0 to 100 scale): 0
[8]; 16 g a.i./ha
  Plant response rating (0 to 100 scale): 0
[8]; 31 g a.i./ha
  Plant response rating (0 to 100 scale): 25
[8]; 62 g a.i./ha
  Plant response rating (0 to 100 scale): 30
[8]; 125 g a.i./ha
  Plant response rating (0 to 100 scale): 38
[9]; 4 g a.i./ha
  Plant response rating (0 to 100 scale): 100
[9]; 8 g a.i./ha
  Plant response rating (0 to 100 scale): 100
[9]; 16 g a.i./ha
  Plant response rating (0 to 100 scale): 100
[9]; 31 g a.i./ha
  Plant response rating (0 to 100 scale): 100
[9]; 62 g a.i./ha
  Plant response rating (0 to 100 scale): 100
[9]; 125 g a.i./ha
  Plant response rating (0 to 100 scale): 100
[10]; 4 g a.i./ha
  Plant response rating (0 to 100 scale): 63
[10]; 8 g a.i./ha
  Plant response rating (0 to 100 scale): 80
[10]; 16 g a.i./ha
  Plant response rating (0 to 100 scale): 98
[10]; 31 g a.i./ha
  Plant response rating (0 to 100 scale): 98
[10]; 62 g a.i./ha
  Plant response rating (0 to 100 scale): 100
[10]; 125 g a.i./ha
  Plant response rating (0 to 100 scale): 100
